In patent US8236789B2, “1-adamantyl azetidin-2-one derivatives and drugs containing same” (Kowa Company, Ltd., priority 2008, dated 2012) one finds IC50 data, which are given here for twelve compounds.

Molecules are shown by their SMILES.

Broadly, the IC50 is the concentration at which inhibition is half-maximal.

One assay deals with T1, human 11β-HSD1 (Homo sapiens, UniProt P28845).
T1 construct: expressed in transfected cells
Briefly: Enzyme inhibitory activity assay, lysate of HEK293 cells stably expressing human 11β-HSD1, cortisol by competitive ELISA. To be noted: Table 1; cell lysate, 100 nmol/L cortisone, NADPH, 37° C. 1 hour; read-out: in vitro assay (IC50 uM) h HSD1. Format: biochemical. The procedure:
(§1) 1. Human 11β-HSD1-, Human 11β-HSD2- and Mouse 11β-HSD1-Gene Clonings and Establishment of Stably Expressing Cells
(§2) Human 11β-HSD1- and human 11β-HSD2-expressing vectors were transfected into human kidney-derived cell line, HEK293 cells, using a transfection reagent, jet PEI (Funakoshi). Mouse 11β-HSD1 was transfected to Chinese hamster ovary-derived cell line, CHO-K1 cells. Selection was conducted with 200-400 μg/mL of zeocine (Invitrogen) to provide stably expressing-cell clones. The stably expressing cells were suspended in buffer solution A (20 mmol/L Tris-HCl, pH 7.4, 250 mmol/L sucrose, 1 mmol/L EGTA, 1 mmol/L EDTA, 1 mmol/L MgCl2), sonicated, and then stored at −80° C.
(§3) 2. Assay of Enzyme Inhibitory Activity
(§4) An enzymatic reaction was conducted using a polystyrene 96-well plate. Each well was added with 1 μL of a test agent dissolved in DMSO and then diluted (0.003 to 3 mmol/L), and further added with 10 μL of cell lysate diluted to a concentration of 0.1 mg/mL to 0.4 mg/mL. Next, 90 μL of buffer solution A containing substrate (100 nmol/L cortisone or cortisol) and coenzyme (400 μmol/L NADPH or NAD+) was added and the mixture was incubated at 37° C. for 1 hour. The enzymatic reaction was stopped by treating at 95° C. for 3 minutes. Cortisol that was present in the reaction solution was determined by a competitive ELISA shown below.
(§5) Anti-rabbit IgG antibody (Chemi-con) diluted to 2 μg/mL with carbonate buffer solution (pH 9.6) was added in 100 μL each to a 96-well immuno plate (Nunc) and immobilized by an incubation at 4° C. overnight. […] After washed three times with buffer solution B containing 0.05% Tween 20, the plates were allowed to develop color by adding 100 μL, of color reagent, TMB (Moss). The color reaction was stopped by 25 μL of 1 mol/L sulfuric acid and the absorbance was determined at 450 nm with a microplate reader (Molecular Device, VersaMax).
(In general: An ELISA detects its analyte on a solid surface through an enzyme-linked reagent.)

The next assay has as its target T2, mouse 11β-HSD1 (Mus musculus, UniProt P50172).
T2 construct: expressed in transfected cells
Briefly: Enzyme inhibitory activity assay, lysate of CHO-K1 cells stably expressing mouse 11β-HSD1, cortisol by competitive ELISA. Format: biochemical. The note with it: Table 2; cell lysate, 100 nmol/L cortisone, NADPH, 37° C. 1 hour; read-out: in vitro assay (IC50 uM) m HSD1. Here is the method:
as §1, §2, §3, §4, §5

T1 sequence (P28845 whole entry): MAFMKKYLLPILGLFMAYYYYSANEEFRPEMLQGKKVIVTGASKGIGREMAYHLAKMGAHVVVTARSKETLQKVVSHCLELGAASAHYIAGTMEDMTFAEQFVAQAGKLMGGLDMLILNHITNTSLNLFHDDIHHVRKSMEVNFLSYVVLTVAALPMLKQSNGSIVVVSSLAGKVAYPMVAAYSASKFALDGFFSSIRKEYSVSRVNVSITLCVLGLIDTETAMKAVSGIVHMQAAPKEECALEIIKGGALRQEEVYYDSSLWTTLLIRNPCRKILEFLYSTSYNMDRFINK
T2 sequence (P50172 whole entry): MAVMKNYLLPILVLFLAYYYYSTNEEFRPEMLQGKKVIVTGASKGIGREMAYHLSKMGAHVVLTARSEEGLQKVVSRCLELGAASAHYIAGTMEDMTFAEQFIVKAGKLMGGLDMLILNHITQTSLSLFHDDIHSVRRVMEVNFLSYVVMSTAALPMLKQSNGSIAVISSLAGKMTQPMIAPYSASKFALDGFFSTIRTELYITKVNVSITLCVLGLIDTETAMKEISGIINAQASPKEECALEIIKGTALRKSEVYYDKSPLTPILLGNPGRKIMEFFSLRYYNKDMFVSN

For the compound `CC1(C)C(=O)N([C@H]2C3CC4CC2C[C@](C(N)=O)(C4)C3)C1c1cccc(Cl)c1Cl` (stereo partly drawn) [Example 9, trans-4-[2-(2,3-dichlorophenyl)-3,3-dimethyl-4-oxoazetidin-1-yl]-1-adamantane carboxyamide], the IC50 is 0.005 µM at human 11β-HSD1 and 0.035 µM on mouse 11β-HSD1.

Consider `COC(=O)[C@]12CC3CC(C1)[C@@H](N1C(=O)C(C)(C)C1c1cccc4ccccc14)C(C3)C2` (stereo partly drawn) [Example 10, methyl trans-4-[2-(naphthalen-1-yl)-3,3-dimethyl-4-oxoazetidin-1-yl]-1-adamantane carboxylate], for which the values for the IC50 on human 11β-HSD1 and on mouse 11β-HSD1 were 0.019 µM and 0.034 µM, respectively.

Consider `CC1(C)C(=O)N([C@H]2C3CC4CC2C[C@](C(=O)O)(C4)C3)C1c1cccc2ccccc12` (stereo partly drawn) [Example 11, trans-4-[2-(naphthalen-1-yl)-3,3-dimethyl-4-oxoazetidin-1-yl]-1-adamantane carboxylic acid], for which the values for the IC50 at human 11β-HSD1 and on mouse 11β-HSD1 were 0.26 µM and 0.42 µM, respectively.

As to `CC1(C)C(=O)N([C@H]2C3CC4CC2C[C@](C(N)=O)(C4)C3)C1c1cccc2ccccc12` (stereo partly drawn) [Example 12, trans-4-[2-(naphthalen-1-yl)-3,3-dimethyl-4-oxoazetidin-1-yl]-1-adamantane carboxyamide], the IC50 stood at 0.022 µM at human 11β-HSD1 and 0.023 µM on mouse 11β-HSD1.

As for `COC(=O)[C@]12CC3CC(C1)[C@@H](N1C(=O)C(C)(C)C1c1cccc4c1OCO4)C(C3)C2` (stereo partly drawn) [Example 13, methyl trans-4-[2-(benzo[d][1,3]dioxol-4-yl)-3,3-dimethyl-4-oxoazetidin-1-yl]-1-adamantane carboxylate], the IC50 stood at 0.051 µM on human 11β-HSD1 and 0.24 µM at mouse 11β-HSD1.

Turning to `CC1(C)C(=O)N([C@H]2C3CC4CC2C[C@](C(=O)O)(C4)C3)C1c1cccc2c1OCO2` (stereo partly drawn) [Example 14, trans-4-[2-(benzo[d][1,3]dioxol-4-yl)-3,3-dimethyl-4-oxoazetidin-1-yl]-1-adamantane carboxylic acid], the results for the IC50 on human 11β-HSD1 and on mouse 11β-HSD1 were 0.013 µM and 0.0095 µM, respectively.

In the case of `CC1(C)C(=O)N([C@H]2C3CC4CC2C[C@](C(N)=O)(C4)C3)C1c1cccc2c1OCO2` (stereo partly drawn) [Example 15, trans-4-[2-(benzo[d][1,3]dioxol-4-yl)-3,3-dimethyl-4-oxoazetidin-1-yl]-1-adamantane carboxyamide], the IC50 on human 11β-HSD1 and on mouse 11β-HSD1 was 0.031 µM each time.

In the case of `COC(=O)[C@]12CC3CC(C1)[C@@H](N1C(=O)C(C)(C)C1c1cccc4cccnc14)C(C3)C2` (stereo partly drawn) [Example 18, methyl trans-4-[2-(quinolin-8-yl)-3,3-dimethyl-4-oxoazetidin-1-yl]-1-adamantane carboxylate], the figures for the IC50 on human 11β-HSD1 and on mouse 11β-HSD1 were 0.029 µM and 0.074 µM, respectively.

Take `CC1(C)C(=O)N([C@H]2C3CC4CC2C[C@](C(N)=O)(C4)C3)C1c1cccc2cccnc12` (stereo partly drawn) [Example 20, trans-4-[2-(quinolin-8-yl)-3,3-dimethyl-4-oxoazetidin-1-yl]-1-adamantane carboxyamide]: the IC50 at human 11β-HSD1 was determined as 0.057 µM; on mouse 11β-HSD1, 0.053 µM.

Turning to `CC1(C)C(=O)N(C2C3CC4CC(C3)CC2C4)C1c1cccc(Cl)c1F` (stereo not drawn) [Example 25, 1-(adamantan-2-yl)-3,3-dimethyl-4-(3-chloro-2-fluorophenyl)azetidin-2-one], the IC50 was found to be 0.02 µM at human 11β-HSD1 and 0.18 µM at mouse 11β-HSD1.

On to `CC1(C)C(=O)N(C2C3CC4CC(C3)CC2C4)C1c1cccc(C(F)(F)F)c1F` (stereo not drawn) [Example 28, 1-(adamantan-2-yl)-3,3-dimethyl-4-(2-fluoro-3-trifluoromethylphenyl)azetidin-2-one], for which the IC50 on human 11β-HSD1 worked out at 0.029 µM; at mouse 11β-HSD1, 0.16 µM.

Regarding `CC1(C)C(=O)N(C2C3CC4CC(C3)CC2C4)C1c1cccc(C(F)(F)F)c1Cl` (stereo not drawn) [Example 30, 1-(adamantan-2-yl)-3,3-dimethyl-4-(2-chloro-3-trifluoromethylphenyl)azetidin-2-one], the IC50 at human 11β-HSD1 came to 0.016 µM; on mouse 11β-HSD1, 0.13 µM.
